“Also recorded” adds a separate entry of the source.
Columns and labels:
[1] = biological target: T1, Human rhinovirus (HRV) type 14 3C protease (Human rhinovirus 14, UniProt P03303); experiment: HRV type 14 3C protease assay; format: biochemical; conditions: increasing dose
T1 construct: Assay using active recombinant Human rhinovirus (HRV) type 14 3C protease
Description: FIG. 7: Assay using active recombinant Human rhinovirus (HRV) type 14 3C protease Cysteine in absence (neg) or presence (increasing dose) of SVC_01. HRV is a protease with preference for non-aromatic residues at P1′. The optimum recognition site for Human rhinovirus (HRV) type 14 3C protease is LEVLFQ/GP, with a glycine at the P1′ position.
Below, the criteria for selection are detailed: • Protease with documented carboxypeptidase activity towards alpha tubulin. Carboxypeptidase A hydrolyzes peptide bonds of C-terminal residues with aromatic or aliphatic side-chains (FIG. 6). • Cysteine protease with preference for non-aromatic residues at P1′. The optimum recognition site for Human rhinovirus (HRV) type 14 3C protease is LEVLFQ/GP, with a glycine at the P1′ position (FIG. 7). • Cysteine protease with preference for aromatic residues at P1′ site. Alike VASH, cathepsin B prefers an aromatic residue at the P1′ position. This is considered to be our best control for specificity (FIG. 8)

[2] = test system: cardiomyocytes of obese ZSF1 rats; experiment: Unloaded shortening contractility of HFpEF myocytes; format: cell-based, rat; conditions: 30-weeks aged obese ZSF1 rats, 2-hours treatment
Experimental: FIG. 16: Improved contraction and relaxation kinetics of HFpEF myocytes during unloaded shortening upon VASH inhibition or TTL overexpression in primary cardiomyocytes isolated from WKY, ZSF1-Lean, or ZSF1 Obese rats. A) Contraction amplitude, B) contraction time, and C) relaxation time in isolated rat cardiomyocytes. n=~90 myocytes per group from N=3 ZSF1 Lean or Obese rats; n=60 myocytes from N=2 WKY rats. Two-way ANOVA with factors of genotype and treatment.
Contractility was measured in a custom-fabricated cell chamber (IonOptix) mounted on an LSM Zeiss 880 inverted confocal microscope using either a 40 or 63× oil 1.4 numerical aperture objective and transmitted light camera (IonOptix MyoCam-S). Experiments were conducted at room temperature and field stimulation was provided at 1.0 Hz with a cell stimulator (MyoPacer, IonOptix). After 10-30 seconds of pacing to achieve steady state, five traces were recorded and analyzed. Sarcomere length was measured optically by Fourier transform analysis (IonWizard, IonOptix).

[3] = test system: ZSF-1 Obese cardiomyocyte; experiment: Immunofluorescence of detyrosinated and tyrosinated tubulin in ZSF1 cardiomyocytes; format: cell-based, rat; conditions: 2 hr 37 C incubation
Experimental: Cells were fixed in 4% PFA (Electron Microscopy Sciences) for 10 minutes, washed 3 times with PBS and permeabilized in 0.1% TritonX-100 for 10 minutes at room temperature. After washing twice with PBS, cells were placed in blocking buffer (1:1 Seablock (Abcam) and 0.1% TritonX-100 (Bio-Rad) in PBS) for at least 1 hour at room temperature, then labeled with primary antibodies (see below) for 24-48 hours at 4° C. Cells were then washed three times in TBS, then labeled with secondary antibodies (see below) in TBS at room temperature for 2-4 hours and washed a final two times with TBS. Stained cells were mounted on #1.5 coverslips in Prolong Diamond Antifade Mountant (Thermo Fisher) for imaging. Alternatively, cells were imaged directly in chambers with TBS. Imaging was carried out on a Zeiss 880 Airyscan confocal microscope operating on an Axiovert Z1 inverted microscope equipped with a Plan-Apochromat 63× oil 1.4 NA objective. Image analysis was performed using ZEN Black software for Airyscan processing, which involves signal integration from the 32 separate sub-resolution detectors in the Airyscan detector and subsequent deconvolution of this integrated signal.

ZSF1 obese rats = experiment: Echocardiography and invasive hemodynamics in HFpEF rats; format: in vivo, rat
Description: FIG. 21: VASHi acutely improves diastolic function in HFpEF rats. A) Echocardiographic assessments of left ventricular diastolic function in ZSF1 Lean and Obese animals+/−SVC_02 treatment. Improved E/A ratio (marker of the function of the left ventricle of the heart) and mitral valve deceleration time indicate improved diastolic function and faster ventricular relaxation upon VASH inhibition in ZSF1 obese rats. B) Hemodynamic measurements of left ventricular diastolic function in ZSF1 Lean and Obese animals+/−SVC_02 treatment. Improved tau (left ventricular diastolic time constant) and dP/dTmin (rate of ventricular relaxation) indicate more rapid ventricular relaxation upon VASH inhibition in ZSF1 obese rats.
Echocardiography measurements were acquired Vevo2100 Ultrasound System (VisualSonics Inc., Toronto, Ontario, Canada) with a MS250 (13-24 MHz) transducer. Animals were sedated with inhaled isoflurane (2-3%). Parasternal long axis, parasternal short axis, apical four chamber, and apical two chamber views were acquired to assess cardiac structure and function. Diastology was assessed using pulse wave and tissue doppler imaging. The protocol used was based on recommendations from the European Society of Cardiology Working Group on Myocardial Function (Zacchigna S et al. 2021).
Animals were induced with isoflurane (5%) before being intubated and mechanically supported. Anesthesia plane was maintained using isoflurane (2-3%). A 2-French pressure-conductance catheter (Transonic Systems Inc., Ithaca, New York, USA) was calibrated using echo derived left ventricular volumes. The right common carotid artery was then dissected, and the catheter was advanced in a retrograde fashion into the left ventricle as previously described. Data were acquired using PowerLab and LabChart Pro (ADInstruments) and analyzed offline using LabChart Pro (ADInstruments).

Swiss mice = experiment: Organ histology (Hematoxylin and Eosin) after systemic treatment; format: in vivo, mouse
Description: To further ascertain the safety profile of the compounds in an animal model, we administered SVC-02 to Swiss mice and analysed by immunohistological description different organ structures including kidney, heart and lung.

T1 sequence (P03303 1538-1719): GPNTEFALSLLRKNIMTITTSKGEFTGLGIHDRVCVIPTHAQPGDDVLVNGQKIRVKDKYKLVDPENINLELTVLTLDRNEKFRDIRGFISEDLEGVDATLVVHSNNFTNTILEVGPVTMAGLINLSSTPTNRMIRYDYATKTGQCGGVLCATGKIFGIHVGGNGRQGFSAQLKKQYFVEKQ

SMILES | inhibition of HRV type 14 3C protease [1] | contraction and relaxation kinetics [2] | detyrosinated tubulin in ZSF1 cardiomyocytes [3] | tyrosinated microtubule network [3] | E/A ratio (ZSF1 obese rats; echocardiography) | mitral valve deceleration time (ZSF1 obese rats; echocardiography) | dP/dTmin (rate of ventricular relaxation) (ZSF1 obese rats; hemodynamics) | tau (left ventricular diastolic time constant) (ZSF1 obese rats; hemodynamics) | organ structure (kidney, heart and lung) histology (Swiss mice)
O=C(O)CCC[C@H](NC(=O)[C@H]1O[C@@H]1C(=O)C[C@@H](Cc1ccc(OCc2ccccc2)cc1)C(=O)O)C(=O)NCCc1ccccc1 [SVC_01] | does not reduce activity | Both contraction and relaxation kinetics were improved | virtual elimination of detyrosinated microtubule; also recorded: significant reduction of tubulin detyrosination | maintained tyrosinated microtubule network | – | – | – | – | –
CCOC(=O)[C@H](Cc1ccc(OCC)cc1)NC(=O)[C@H]1O[C@@H]1C(=O)N[C@@H](Cc1ccc(OCC)cc1)C(=O)OCC [SVC_02] | – | – | – | – | Improved | Improved | Improved | Improved | normal appearance of different organs; also recorded: did not alter organ structure

— US20260199284A1, “SPECIFIC VASH COMPOUNDS (SVC) INHIBITORS FOR HEART DISEASES” (MT ACT, priority 2023, published 2026)
